Laboratory results reported in doi:10.1101/2022.02.23.481604v2 (biorxiv, 2022).
Counter-ions that a name gives are not always drawn. Values belong to the molecule of their own block, whether it stands above or below them.

Tests used:
Test in all cases: cAMP formation in membranes
[1] = target: mAC3 activated by Gsα (Q227L) (Homo sapiens, UniProt O60266); assay type: biochemical
[2] = target: mAC9 activated by Gsα (Q227L) (Homo sapiens, UniProt O60503); assay type: biochemical
[3] = target: mAC6 activated by Gsα (Q227L) (Homo sapiens, UniProt O43306); assay type: biochemical
Sequence of mAC6 activated by Gsα (Q227L) (O43306 whole entry, stated change not applied): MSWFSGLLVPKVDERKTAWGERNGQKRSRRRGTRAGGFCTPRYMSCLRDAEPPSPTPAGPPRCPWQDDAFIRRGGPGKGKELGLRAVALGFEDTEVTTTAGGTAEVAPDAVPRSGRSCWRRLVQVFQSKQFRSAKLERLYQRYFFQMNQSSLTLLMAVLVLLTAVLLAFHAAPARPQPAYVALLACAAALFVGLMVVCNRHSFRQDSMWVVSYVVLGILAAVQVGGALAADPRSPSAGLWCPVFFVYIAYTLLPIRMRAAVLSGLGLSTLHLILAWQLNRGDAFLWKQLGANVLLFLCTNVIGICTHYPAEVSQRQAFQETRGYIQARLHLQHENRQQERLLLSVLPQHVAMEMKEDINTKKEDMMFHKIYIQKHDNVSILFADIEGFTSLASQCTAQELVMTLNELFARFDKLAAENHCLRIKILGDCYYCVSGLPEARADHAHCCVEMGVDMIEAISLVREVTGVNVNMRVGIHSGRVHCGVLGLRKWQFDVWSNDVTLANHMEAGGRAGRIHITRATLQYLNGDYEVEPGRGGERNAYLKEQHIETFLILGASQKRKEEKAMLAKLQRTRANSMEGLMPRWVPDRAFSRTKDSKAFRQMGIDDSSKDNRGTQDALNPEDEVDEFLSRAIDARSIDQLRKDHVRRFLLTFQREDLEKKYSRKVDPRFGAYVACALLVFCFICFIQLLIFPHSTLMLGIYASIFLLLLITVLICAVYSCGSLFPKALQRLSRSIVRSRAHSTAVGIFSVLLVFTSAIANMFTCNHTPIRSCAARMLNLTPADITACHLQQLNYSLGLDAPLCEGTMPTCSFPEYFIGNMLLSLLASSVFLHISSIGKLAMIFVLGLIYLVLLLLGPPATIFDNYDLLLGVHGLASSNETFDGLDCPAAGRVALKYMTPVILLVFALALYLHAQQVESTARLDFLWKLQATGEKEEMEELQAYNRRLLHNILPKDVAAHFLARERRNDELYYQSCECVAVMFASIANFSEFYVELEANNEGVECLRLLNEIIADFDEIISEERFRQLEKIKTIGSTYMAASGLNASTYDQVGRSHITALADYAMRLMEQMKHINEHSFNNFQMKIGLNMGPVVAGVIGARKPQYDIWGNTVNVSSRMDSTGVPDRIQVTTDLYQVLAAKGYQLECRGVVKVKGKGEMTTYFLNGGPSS
Sequence of mAC6 activated by Gsα (Q227L) (P63092 2-394 Q227L partner): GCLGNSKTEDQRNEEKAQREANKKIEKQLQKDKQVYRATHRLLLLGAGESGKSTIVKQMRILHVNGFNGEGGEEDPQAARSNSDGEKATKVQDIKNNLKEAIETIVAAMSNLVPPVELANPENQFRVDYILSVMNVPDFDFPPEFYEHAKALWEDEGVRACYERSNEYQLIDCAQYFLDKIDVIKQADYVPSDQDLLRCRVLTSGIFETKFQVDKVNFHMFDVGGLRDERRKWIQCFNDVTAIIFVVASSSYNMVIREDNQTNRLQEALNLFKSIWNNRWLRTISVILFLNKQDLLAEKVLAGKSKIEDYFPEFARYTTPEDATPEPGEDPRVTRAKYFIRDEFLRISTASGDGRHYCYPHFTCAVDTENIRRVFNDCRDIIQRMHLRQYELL

[4] = target: mAC7 activated by Gsα (Q227L) (Homo sapiens, UniProt P51828); assay type: biochemical
Sequence of mAC7 activated by Gsα (Q227L) (P63092 2-394 Q227L partner, one chain of several): as the sequence (P63092 2-394 Q227L partner) above

mAC1 = mAC1 (Homo sapiens, UniProt Q08828); assay type: biochemical
Sequence of mAC1 (Q08828 whole entry): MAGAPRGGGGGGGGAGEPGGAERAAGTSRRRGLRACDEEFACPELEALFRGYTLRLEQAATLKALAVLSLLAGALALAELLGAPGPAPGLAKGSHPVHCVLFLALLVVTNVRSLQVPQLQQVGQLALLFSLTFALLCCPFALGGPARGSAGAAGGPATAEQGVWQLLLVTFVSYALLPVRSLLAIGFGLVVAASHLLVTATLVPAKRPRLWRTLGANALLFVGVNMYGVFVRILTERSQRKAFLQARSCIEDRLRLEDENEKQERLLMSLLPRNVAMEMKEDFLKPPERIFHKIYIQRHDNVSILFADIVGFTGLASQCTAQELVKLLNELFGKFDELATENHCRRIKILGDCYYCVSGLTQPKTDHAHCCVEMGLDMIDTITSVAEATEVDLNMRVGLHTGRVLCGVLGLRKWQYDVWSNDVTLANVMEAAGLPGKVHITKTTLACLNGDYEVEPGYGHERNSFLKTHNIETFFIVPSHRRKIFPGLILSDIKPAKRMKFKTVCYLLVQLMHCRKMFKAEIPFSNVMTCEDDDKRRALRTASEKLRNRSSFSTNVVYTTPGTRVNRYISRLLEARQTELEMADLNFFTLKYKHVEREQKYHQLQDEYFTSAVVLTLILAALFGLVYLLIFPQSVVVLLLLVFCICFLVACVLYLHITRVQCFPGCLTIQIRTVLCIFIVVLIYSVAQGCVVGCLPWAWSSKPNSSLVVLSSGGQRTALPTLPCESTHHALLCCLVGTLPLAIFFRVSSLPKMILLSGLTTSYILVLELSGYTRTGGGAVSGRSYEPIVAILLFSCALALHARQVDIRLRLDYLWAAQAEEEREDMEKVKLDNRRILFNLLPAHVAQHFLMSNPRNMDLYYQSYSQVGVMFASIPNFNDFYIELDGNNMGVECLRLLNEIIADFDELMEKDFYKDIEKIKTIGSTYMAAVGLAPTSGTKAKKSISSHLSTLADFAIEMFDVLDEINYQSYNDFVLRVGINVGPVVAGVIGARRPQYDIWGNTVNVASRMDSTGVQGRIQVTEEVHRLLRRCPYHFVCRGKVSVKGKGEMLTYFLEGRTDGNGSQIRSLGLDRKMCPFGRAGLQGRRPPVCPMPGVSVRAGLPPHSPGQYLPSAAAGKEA

mAC7 = target: T1, mAC7 (Homo sapiens, UniProt P51828); assay type: biochemical
T1 sequence (P51828 1-1080): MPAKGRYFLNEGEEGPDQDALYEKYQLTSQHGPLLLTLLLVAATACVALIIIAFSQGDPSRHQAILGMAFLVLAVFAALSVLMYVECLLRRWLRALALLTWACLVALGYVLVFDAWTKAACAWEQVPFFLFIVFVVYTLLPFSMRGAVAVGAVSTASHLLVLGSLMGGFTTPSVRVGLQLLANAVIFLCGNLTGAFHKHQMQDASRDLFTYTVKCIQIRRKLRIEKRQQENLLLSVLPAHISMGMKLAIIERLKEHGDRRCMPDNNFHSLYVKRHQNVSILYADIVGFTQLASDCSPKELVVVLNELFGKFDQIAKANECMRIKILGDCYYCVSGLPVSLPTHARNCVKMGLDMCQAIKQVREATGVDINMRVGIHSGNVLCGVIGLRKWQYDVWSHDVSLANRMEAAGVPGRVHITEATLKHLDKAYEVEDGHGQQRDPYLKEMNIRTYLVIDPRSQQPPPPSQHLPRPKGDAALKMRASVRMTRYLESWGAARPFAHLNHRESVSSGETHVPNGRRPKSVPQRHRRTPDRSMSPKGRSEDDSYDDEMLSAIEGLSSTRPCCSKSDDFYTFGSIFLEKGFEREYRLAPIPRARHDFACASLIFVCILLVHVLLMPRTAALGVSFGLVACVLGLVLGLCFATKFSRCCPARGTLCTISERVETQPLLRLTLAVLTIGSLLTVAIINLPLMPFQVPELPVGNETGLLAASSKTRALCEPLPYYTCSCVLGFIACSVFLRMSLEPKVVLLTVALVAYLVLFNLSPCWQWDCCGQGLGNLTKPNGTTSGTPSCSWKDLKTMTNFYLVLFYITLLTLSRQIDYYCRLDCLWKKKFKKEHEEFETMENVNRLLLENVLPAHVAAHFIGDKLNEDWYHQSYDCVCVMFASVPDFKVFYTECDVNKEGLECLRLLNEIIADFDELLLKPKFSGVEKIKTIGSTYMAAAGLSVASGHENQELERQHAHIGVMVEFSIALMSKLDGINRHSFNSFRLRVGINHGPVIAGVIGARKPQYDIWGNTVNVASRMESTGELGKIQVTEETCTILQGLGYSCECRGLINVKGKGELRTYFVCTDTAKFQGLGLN

[5] = substrate: Nc1ncnc2c1ncn2[C@@H]1O[C@H](COP(=O)(O)OP(=O)(O)OP(=O)(O)O)[C@@H](O)[C@H]1O; assay type: biochemical, Homo sapiens; settings: without SDPA, Gsα presence inferred from Vmax, Mg2+, pH 7.5

Sequence of mAC3 activated by Gsα (Q227L) (P63092 2-394 Q227L partner, one chain of several): as the sequence (P63092 2-394 Q227L partner) above
Sequence of mAC9 activated by Gsα (Q227L) (O60503 whole entry, stated change not applied): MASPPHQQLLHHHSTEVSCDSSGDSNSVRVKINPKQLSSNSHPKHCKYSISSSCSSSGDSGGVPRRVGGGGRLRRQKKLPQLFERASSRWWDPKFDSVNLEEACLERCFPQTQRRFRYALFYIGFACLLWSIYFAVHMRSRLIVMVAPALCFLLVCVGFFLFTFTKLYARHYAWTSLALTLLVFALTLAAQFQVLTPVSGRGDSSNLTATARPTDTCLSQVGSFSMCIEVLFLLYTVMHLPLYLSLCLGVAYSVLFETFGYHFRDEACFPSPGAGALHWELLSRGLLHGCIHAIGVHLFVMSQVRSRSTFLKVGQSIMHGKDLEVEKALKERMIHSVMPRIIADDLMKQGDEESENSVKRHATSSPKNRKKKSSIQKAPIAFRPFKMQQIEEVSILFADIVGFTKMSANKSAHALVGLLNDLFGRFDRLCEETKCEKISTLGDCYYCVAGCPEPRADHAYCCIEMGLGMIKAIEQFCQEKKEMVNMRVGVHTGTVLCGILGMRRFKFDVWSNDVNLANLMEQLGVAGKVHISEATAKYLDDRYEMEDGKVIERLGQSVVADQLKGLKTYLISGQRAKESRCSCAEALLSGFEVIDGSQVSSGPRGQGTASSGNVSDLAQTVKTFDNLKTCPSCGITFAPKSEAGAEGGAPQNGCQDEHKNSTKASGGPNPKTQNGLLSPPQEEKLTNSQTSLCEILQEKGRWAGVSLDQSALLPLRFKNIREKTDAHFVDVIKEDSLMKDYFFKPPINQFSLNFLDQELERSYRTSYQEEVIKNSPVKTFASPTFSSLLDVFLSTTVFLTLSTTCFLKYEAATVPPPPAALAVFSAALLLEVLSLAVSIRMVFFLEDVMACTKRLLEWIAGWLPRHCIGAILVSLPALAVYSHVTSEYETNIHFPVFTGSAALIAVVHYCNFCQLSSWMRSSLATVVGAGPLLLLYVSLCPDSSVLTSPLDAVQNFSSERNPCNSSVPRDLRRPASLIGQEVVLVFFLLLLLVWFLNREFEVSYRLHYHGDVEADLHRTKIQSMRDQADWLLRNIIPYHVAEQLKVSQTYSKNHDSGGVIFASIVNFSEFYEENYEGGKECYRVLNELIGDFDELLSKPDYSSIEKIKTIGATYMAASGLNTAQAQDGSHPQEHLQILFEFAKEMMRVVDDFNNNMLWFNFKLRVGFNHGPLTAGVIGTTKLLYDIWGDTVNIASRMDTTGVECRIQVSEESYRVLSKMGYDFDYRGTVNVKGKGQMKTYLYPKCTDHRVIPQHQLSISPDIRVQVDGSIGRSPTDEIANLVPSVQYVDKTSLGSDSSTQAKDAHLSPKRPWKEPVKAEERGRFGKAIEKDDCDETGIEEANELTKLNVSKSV
Sequence of mAC9 activated by Gsα (Q227L) (P63092 2-394 Q227L partner): as the sequence (P63092 2-394 Q227L partner) above

Molecule: CC/C=C\C/C=C\C/C=C\C/C=C\C/C=C\C/C=C\CCC(=O)OC[C@H](COP(=O)(O)O)OC(=O)CC/C=C\C/C=C\C/C=C\C/C=C\C/C=C\C/C=C\CC [DDPA, 1,2-didocosahexaenoyl-sn-glycero-3-phosphate (sodium salt)]
EC50 [1]: 1400 nM

Molecule: CC/C=C\C/C=C\C/C=C\C/C=C\C/C=C\C/C=C\CCC(=O)O[C@H](COC(=O)CCCCCCCCCCCCCCC)COP(=O)(O)O [PDPA, 1-palmitoyl-2-docosahexaenoyl-sn-glycero-3-phosphate (sodium salt)]
EC50 [1]: 1300 nM

Molecule: CC/C=C\C/C=C\C/C=C\C/C=C\C/C=C\C/C=C\CCC(=O)O[C@H](COC(=O)CCCCCCCCCCCCCCCCC)COP(=O)(O)OC[C@H](N)C(=O)O [SDPS, 1-stearoyl-2-docosahexaenoyl-sn-glycero-3-phospho-L-serine]
EC50 [1]: 1200 nM

Molecule: C=C[C@@]1(C)CC(=O)[C@]2(O)[C@@]3(C)[C@@H](O)CCC(C)(C)[C@@H]3[C@H](O)[C@H](OC(C)=O)[C@@]2(C)O1 [forskolin]
EC50 (mAC1): 2000 nM
EC50 (mAC7): 512000 nM

B1: mAC3 activated by Gsα (Q227L) (Homo sapiens) (protein)
chain: MPRNQGFSEPEYSAEYSAEYSVSLPSDPDRGVGRTHEISVRNSGSCLCLPRFMRLTFVPESLENLYQTYFKRQRHETLLVLVVFAALFDCYVVVMCAVVFSSDKLASLAVAGIGLVLDIILFVLCKKGLLPDRVTRRVLPYVLWLLITAQIFSYLGLNFARAHAASDTVGWQVFFVFSFFITLPLSLSPIVIISVVSCVVHTLVLGVTVAQQQQEELKGMQLLREILANVFLYLCAIAVGIMSYYMADRKHRKAFLEARQSLEVKMNLEEQSQQQENLMLSILPKHVADEMLKDMKKDESQKDQQQFNTMYMYRHENVSILFADIVGFTQLSSACSAQELVKLLNELFARFDKLAAKYHQLRIKILGDCYYCICGLPDYREDHAVCSILMGLAMVEAISYVREKTKTGVDMRVGVHTGTVLGGVLGQKRWQYDVWSTDVTVANKMEAGGIPGRVHISQSTMDCLKGEFDVEPGDGGSRCDYLEEKGIETYLIIASKPEVKKTATQNGLNGSALPNGAPASSKSSSPALIETKEPNGSAHSSGSTSEKPEEQDAQADNPSFPNPRRRLRLQDLADRVVDASEDEHELNQLLNEALLERESAQVVKKRNTFLLSMRFMDPEMETRYSVEKEKQSGAAFSCSCVVLLCTALVEILIDPWLMTNYVTFMVGEILLLILTICSLAAIFPRAFPKKLVAFSTWIDRTRWARNTWAMLAIFILVMANVVDMLSCLQYYTGPSNATAGMETEGSCLENPKYYNYVAVLSLIATIMLVQVSHMVKLTLMLLVAGAVATINLYAWRPVFDEYDHKRFREHDLPMVALEQMQGFNPGLNGTDRLPLVPSKYSMTVMVFLMMLSFYYFSRHVEKLARTLFLWKIEVHDQKERVYEMRRWNEALVTNMLPEHVARHFLGSKKRDEELYSQTYDEIGVMFASLPNFADFYTEESINNGGIECLRFLNEIISDFDSLLDNPKFRVITKIKTIGSTYMAASGVTPDVNTNGFASSNKEDKSERERWQHLADLADFALAMKDTLTNINNQSFNNFMLRIGMNKGGVLAGVIGARKPHYDIWGNTVNVASRMESTGVMGNIQVVEETQVILREYGFRFVRRGPIFVKGKGELLTFFLKGRDKLATFPNGPSVTLPHQVVDNS
Km [5]: 100 µM

More lines, in order of falling EC50 [1], values ahead:

EC50 [1]: 4800 nM
Molecule: CCCCC/C=C\C/C=C\C/C=C\C/C=C\CCCC(=O)O[C@H](COC(=O)CCCCCCCCCCCCCCCCC)COP(=O)(O)O [SAPA, 1-stearoyl-2-arachidonoyl-sn-glycero-3-phosphate (sodium salt)]

EC50 [1]: 900 nM
EC50 [2]: 700 nM
EC50 [3]: 700 nM
EC50 [4]: 700 nM
Molecule: CC/C=C\C/C=C\C/C=C\C/C=C\C/C=C\C/C=C\CCC(=O)O[C@H](COC(=O)CCCCCCCCCCCCCCCCC)COP(=O)(O)O [SDPA, 1-stearoyl-2-docosahexaenoyl-sn-glycero-3-phosphate (sodium salt)]
